What all share (assay type): functional
Assay [1] has as its system Aspergillus niger. Put plainly: Antifungal activity against Aspergillus niger assessed as diameter of inhibition zone at 50 ug/well after 48 hrs by agar well diffusion method. The conditions noted are these: read-out: DIZ.
The test system of assay [2] is Aspergillus niger. Kind of assay: Antifungal activity against Aspergillus niger assessed as diameter of inhibition zone at 12.5 ug/well after 48 hrs by agar well diffusion method. The settings on record: read-out: DIZ. For orientation: In agar diffusion tests the substance spreads into inoculated agar from a disc or well.
Assay [3] relates to Aspergillus niger. Kind of assay: Antifungal activity against Aspergillus niger assessed as diameter of inhibition zone at 100 ug/well after 48 hrs by agar well diffusion method. The settings on record: read-out: DIZ.
For assay [4], the system named is Penicillium chrysogenum. Kind of assay: Antifungal activity against Penicillium chrysogenum assessed as diameter of inhibition zone at 12.5 ug/well after 48 hrs by agar well diffusion method. The settings on record: read-out: DIZ.
The test system of assay [5] is Penicillium chrysogenum. Kind of assay: Antifungal activity against Penicillium chrysogenum assessed as diameter of inhibition zone at 100 ug/well after 48 hrs by agar well diffusion method. The settings on record: read-out: DIZ.
In assay [6] the test system is Penicillium chrysogenum. Put plainly: Antifungal activity against Penicillium chrysogenum assessed as diameter of inhibition zone at 50 ug/well after 48 hrs by agar well diffusion method. The settings on record: read-out: DIZ.
Assay [7] has as its system Aspergillus niger. Put plainly: Antifungal activity against Aspergillus niger assessed as diameter of inhibition zone at 25 ug/well after 48 hrs by agar well diffusion method. The settings on record: read-out: DIZ.
For assay [8], the system named is Penicillium chrysogenum. Kind of assay: Antifungal activity against Penicillium chrysogenum after 48 hrs by turbidity-based broth dilution assay. A general note: In broth dilution the organism is exposed to a series of concentrations in liquid medium.
The subject of assay [9] is Penicillium chrysogenum. Put plainly: Antifungal activity against Penicillium chrysogenum assessed as diameter of inhibition zone at 25 ug/well after 48 hrs by agar well diffusion method. The conditions noted are these: read-out: DIZ.
In assay [10] the test system is Aspergillus niger. Put plainly: Antifungal activity against Aspergillus niger after 48 hrs by turbidity-based broth dilution assay.
In assay [11] the test system is Staphylococcus aureus. Kind of assay: Antibacterial activity against Staphylococcus aureus assessed as diameter of inhibition zone at 12.5 ug/well after 24 hrs by agar well diffusion method. The conditions noted are these: read-out: DIZ.
Assay [12] concerns Pseudomonas aeruginosa. Kind of assay: Antibacterial activity against Pseudomonas aeruginosa after 24 hrs by turbidity-based broth dilution assay.
For assay [13], the system named is Bacillus subtilis. Kind of assay: Antibacterial activity against Bacillus subtilis assessed as diameter of inhibition zone at 12.5 ug/well after 24 hrs by agar well diffusion method. The settings on record: read-out: DIZ.
Assay [14] deals with Bacillus subtilis. Kind of assay: Antibacterial activity against Bacillus subtilis assessed as diameter of inhibition zone at 50 ug/well after 24 hrs by agar well diffusion method. The settings on record: read-out: DIZ.
In assay [15] the test system is Pseudomonas aeruginosa. Kind of assay: Bactericidal activity against Pseudomonas aeruginosa incubated for 24 hrs followed by regrowth on sterile nutrient broth for 24 hrs.
The subject of assay [16] is Pseudomonas aeruginosa. Put plainly: Antibacterial activity against Pseudomonas aeruginosa assessed as diameter of inhibition zone at 12.5 ug/well after 24 hrs by agar well diffusion method. The settings on record: read-out: DIZ.
The subject of assay [17] is Bacillus subtilis. Put plainly: Antibacterial activity against Bacillus subtilis assessed as diameter of inhibition zone at 25 ug/well after 24 hrs by agar well diffusion method. The settings on record: read-out: DIZ.
For assay [18], the system named is Staphylococcus aureus. Kind of assay: Antibacterial activity against Staphylococcus aureus after 24 hrs by turbidity-based broth dilution assay.
For assay [19], the system named is Staphylococcus aureus. Put plainly: Bactericidal activity against Staphylococcus aureus incubated for 24 hrs followed by regrowth on sterile nutrient broth for 24 hrs.
The test system of assay [20] is Staphylococcus aureus. Put plainly: Antibacterial activity against Staphylococcus aureus assessed as diameter of inhibition zone at 50 ug/well after 24 hrs by agar well diffusion method. The conditions noted are these: read-out: DIZ.
In assay [21] the test system is Staphylococcus aureus. Kind of assay: Antibacterial activity against Staphylococcus aureus assessed as diameter of inhibition zone at 25 ug/well after 24 hrs by agar well diffusion method. The settings on record: read-out: DIZ.
Assay [22] has as its system Staphylococcus aureus. Put plainly: Antibacterial activity against Staphylococcus aureus assessed as diameter of inhibition zone at 100 ug/well after 24 hrs by agar well diffusion method. The settings on record: read-out: DIZ.
Assay [23] has as its system Pseudomonas aeruginosa. Put plainly: Antibacterial activity against Pseudomonas aeruginosa assessed as diameter of inhibition zone at 50 ug/well after 24 hrs by agar well diffusion method. The conditions noted are these: read-out: DIZ.
The subject of assay [24] is Klebsiella pneumoniae. Kind of assay: Antibacterial activity against Klebsiella pneumoniae assessed as diameter of inhibition zone at 100 ug/well after 24 hrs by agar well diffusion method. The settings on record: read-out: DIZ.
The subject of assay [25] is Pseudomonas aeruginosa. Put plainly: Antibacterial activity against Pseudomonas aeruginosa assessed as diameter of inhibition zone at 100 ug/well after 24 hrs by agar well diffusion method. The conditions noted are these: read-out: DIZ.
Assay [26] concerns Pseudomonas aeruginosa. Put plainly: Ratio of MBC to MIC for Pseudomonas aeruginosa.
Assay [27] concerns Klebsiella pneumoniae. Put plainly: Antibacterial activity against Klebsiella pneumoniae assessed as diameter of inhibition zone at 12.5 ug/well after 24 hrs by agar well diffusion method. The settings on record: read-out: DIZ.
For assay [28], the system named is Bacillus subtilis. Put plainly: Antibacterial activity against Bacillus subtilis assessed as diameter of inhibition zone at 100 ug/well after 24 hrs by agar well diffusion method. The conditions noted are these: read-out: DIZ.
Assay [29] has as its system Klebsiella pneumoniae. Kind of assay: Antibacterial activity against Klebsiella pneumoniae assessed as diameter of inhibition zone at 25 ug/well after 24 hrs by agar well diffusion method. The conditions noted are these: read-out: DIZ.
Assay [30] relates to Aspergillus niger. Kind of assay: Fungicidal activity against Aspergillus niger incubated for 48 hrs followed by regrowth on PDA plates for 48 hrs.
Assay [31] relates to Klebsiella pneumoniae. Put plainly: Antibacterial activity against Klebsiella pneumoniae after 24 hrs by turbidity-based broth dilution assay.
In assay [32] the test system is Klebsiella pneumoniae. Kind of assay: Antibacterial activity against Klebsiella pneumoniae assessed as diameter of inhibition zone at 50 ug/well after 24 hrs by agar well diffusion method. The conditions noted are these: read-out: DIZ.
In assay [33] the test system is Pseudomonas aeruginosa. Put plainly: Antibacterial activity against Pseudomonas aeruginosa assessed as diameter of inhibition zone at 25 ug/well after 24 hrs by agar well diffusion method. The conditions noted are these: read-out: DIZ.
In assay [34] the test system is Klebsiella pneumoniae. Kind of assay: Bactericidal activity against Klebsiella pneumoniae incubated for 24 hrs followed by regrowth on sterile nutrient broth for 24 hrs.
The subject of assay [35] is Bacillus subtilis. Kind of assay: Bactericidal activity against Bacillus subtilis incubated for 24 hrs followed by regrowth on sterile nutrient broth for 24 hrs. Also noted: unit not given here.
Assay [36] relates to Penicillium chrysogenum. Kind of assay: Fungicidal activity against Penicillium chrysogenum incubated for 48 hrs followed by regrowth on PDA plates for 48 hrs.

On to `CC(=O)N1CCN(c2ccc(OCC3COC(Cn4ccnc4)(c4ccc(Cl)cc4Cl)O3)cc2)CC1` (stereo unspecified) [KETOCONAZOLE], for which the zone of inhibition at 50 µg/disc in the assay on Aspergillus niger [1] came out at 34 mm; in the assay with Penicillium chrysogenum [6] it was 37 mm. The zone of inhibition at 12.5 µg/disc was 29 mm in the assay on Aspergillus niger [2] and 34 mm with Penicillium chrysogenum [4]. Besides, the zone of inhibition at 100 µg/disc amounted to 37 mm in the assay on Aspergillus niger [3] and 39 mm in the assay on Penicillium chrysogenum [5]. In addition, the zone of inhibition at 25 µg/disc with Aspergillus niger [7] was 31 mm; with Penicillium chrysogenum [9], 36 mm. In addition, the values for the MIC with Penicillium chrysogenum [8] and in the assay on Aspergillus niger [10] were 12.5 µg and 6.25 µg, respectively.

On to `Cc1cc(SCc2nnc(-c3ccc(Cl)cc3)s2)nc(SCc2nnc(-c3ccc(Cl)cc3)s2)n1`, for which the zone of inhibition at 12.5 µg/disc in the assay on Staphylococcus aureus [11] amounted to 15 mm; in the assay with Bacillus subtilis [13], 21 mm; in the assay with Pseudomonas aeruginosa [16], 26 mm; with Aspergillus niger [2], 24 mm; in the assay on Penicillium chrysogenum [4], 15 mm; in the assay on Klebsiella pneumoniae [27], 28 mm. The MIC against Pseudomonas aeruginosa [12] was 6.25 µg; in the assay on Staphylococcus aureus [18], 50 µg; in the assay with Klebsiella pneumoniae [31], 12.5 µg; with Penicillium chrysogenum [8], 50 µg; with Aspergillus niger [10] it was 12.5 µg. Moreover, the zone of inhibition at 50 µg/disc was 28 mm in the assay with Aspergillus niger [1]; 26 mm with Bacillus subtilis [14]; 19 mm in the assay with Staphylococcus aureus [20]; 32 mm with Pseudomonas aeruginosa [23]; 19 mm with Penicillium chrysogenum [6]; 32 mm with Klebsiella pneumoniae [32]. In addition, the MBC in the assay with Pseudomonas aeruginosa [15] is 12.5 µg; with Staphylococcus aureus [19], 200 µg; in the assay on Klebsiella pneumoniae [34] it was 50 µg; with Bacillus subtilis [35], 100. Moreover, the zone of inhibition at 25 µg/disc with Bacillus subtilis [17] stood at 23 mm; in the assay with Staphylococcus aureus [21], 17 mm; in the assay with Klebsiella pneumoniae [29], 30 mm; in the assay with Aspergillus niger [7], 26 mm; with Penicillium chrysogenum [9], 17 mm; with Pseudomonas aeruginosa [33], 29 mm. The zone of inhibition at 100 µg/disc is 31 mm in the assay on Aspergillus niger [3]; 21 mm with Staphylococcus aureus [22]; 35 mm in the assay on Klebsiella pneumoniae [24]; 34 mm in the assay with Pseudomonas aeruginosa [25]; 22 mm with Penicillium chrysogenum [5]; 29 mm in the assay with Bacillus subtilis [28]. In the assay with Pseudomonas aeruginosa [26], the Ratio amounted to 2. For the same compound, the MFC in the assay with Aspergillus niger [30] is 50 µg; against Penicillium chrysogenum [36], 200 µg.
